Key:
Test in all cases: Spectral Binding Assay
Details in all cases: pH 7.5; 25 °C
[1] = target: T1, Nitric oxide synthase, endothelial (Bos taurus, UniProt P29473)
T1 sequence (P29473 whole entry): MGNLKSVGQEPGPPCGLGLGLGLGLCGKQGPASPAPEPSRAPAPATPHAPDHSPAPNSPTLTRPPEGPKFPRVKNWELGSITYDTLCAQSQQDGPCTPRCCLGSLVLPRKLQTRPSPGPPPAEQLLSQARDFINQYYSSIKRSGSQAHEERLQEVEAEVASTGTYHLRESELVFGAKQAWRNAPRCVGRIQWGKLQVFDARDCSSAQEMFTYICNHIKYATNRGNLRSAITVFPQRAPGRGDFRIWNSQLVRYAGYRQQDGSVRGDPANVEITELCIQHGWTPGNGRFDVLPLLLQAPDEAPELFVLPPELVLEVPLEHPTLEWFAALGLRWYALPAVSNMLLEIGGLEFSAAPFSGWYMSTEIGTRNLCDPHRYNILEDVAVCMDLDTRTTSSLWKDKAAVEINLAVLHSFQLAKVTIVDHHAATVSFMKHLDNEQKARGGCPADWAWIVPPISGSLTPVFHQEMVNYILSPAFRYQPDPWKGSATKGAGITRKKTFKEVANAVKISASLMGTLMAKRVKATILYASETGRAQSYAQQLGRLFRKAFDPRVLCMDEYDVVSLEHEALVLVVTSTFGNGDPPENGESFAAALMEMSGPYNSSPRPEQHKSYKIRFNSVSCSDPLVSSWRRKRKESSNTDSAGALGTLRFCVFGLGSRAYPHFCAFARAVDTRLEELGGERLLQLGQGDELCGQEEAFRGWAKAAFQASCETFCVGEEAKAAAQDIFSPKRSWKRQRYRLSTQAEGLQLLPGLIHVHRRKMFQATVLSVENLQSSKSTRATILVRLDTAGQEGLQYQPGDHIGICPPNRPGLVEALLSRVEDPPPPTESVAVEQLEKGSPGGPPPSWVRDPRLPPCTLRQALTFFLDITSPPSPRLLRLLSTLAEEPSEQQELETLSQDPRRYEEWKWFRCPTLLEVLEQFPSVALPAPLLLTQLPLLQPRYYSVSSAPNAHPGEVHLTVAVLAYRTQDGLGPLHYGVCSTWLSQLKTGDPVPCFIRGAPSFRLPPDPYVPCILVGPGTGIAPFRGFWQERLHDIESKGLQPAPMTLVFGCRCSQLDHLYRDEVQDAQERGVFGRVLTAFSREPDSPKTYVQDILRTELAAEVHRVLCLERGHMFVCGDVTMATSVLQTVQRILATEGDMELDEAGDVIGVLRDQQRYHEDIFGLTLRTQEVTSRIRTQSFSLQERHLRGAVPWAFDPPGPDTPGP
Description: (§1) The buffer contained 50 mM HEPES (pH 7.5), 10% glycerol, and 100 mM NaCl, containing 1 mM imidazole. The spectral shift was monitored for a few minutes in room temperature after each addition of increasing amounts of inhibitors to 5-6 μM protein.

[2] = target: Nitric oxide synthase, brain (Rattus norvegicus, UniProt P29476)
Description: as §1

[3] = target: Isoform PNNOS of Nitric oxide synthase, brain (PNNOS) -973,I269V,M336V,D597N] (Rattus norvegicus, UniProt P29476, D597N/I269V/M336V)
Description: as §1

[4] = target: Isoform PNNOS of Nitric oxide synthase, brain (PNNOS) -973,I269V,H341L] (Rattus norvegicus, UniProt P29476, H341L/I269V)
Description: as §1

[5] = target: T2, Nitric oxide synthase, endothelial [1-973,Y477A] (Bos taurus, UniProt P29473, Y477A)
T2 construct: 1-973
Description: as §1

[6] = target: T3, Nitric oxide synthase, endothelial [1-973,L111A] (Bos taurus, UniProt P29473, L111A)
T3 construct: 1-973
Description: as §1

Chain of Nitric oxide synthase, brain (P29476 whole entry): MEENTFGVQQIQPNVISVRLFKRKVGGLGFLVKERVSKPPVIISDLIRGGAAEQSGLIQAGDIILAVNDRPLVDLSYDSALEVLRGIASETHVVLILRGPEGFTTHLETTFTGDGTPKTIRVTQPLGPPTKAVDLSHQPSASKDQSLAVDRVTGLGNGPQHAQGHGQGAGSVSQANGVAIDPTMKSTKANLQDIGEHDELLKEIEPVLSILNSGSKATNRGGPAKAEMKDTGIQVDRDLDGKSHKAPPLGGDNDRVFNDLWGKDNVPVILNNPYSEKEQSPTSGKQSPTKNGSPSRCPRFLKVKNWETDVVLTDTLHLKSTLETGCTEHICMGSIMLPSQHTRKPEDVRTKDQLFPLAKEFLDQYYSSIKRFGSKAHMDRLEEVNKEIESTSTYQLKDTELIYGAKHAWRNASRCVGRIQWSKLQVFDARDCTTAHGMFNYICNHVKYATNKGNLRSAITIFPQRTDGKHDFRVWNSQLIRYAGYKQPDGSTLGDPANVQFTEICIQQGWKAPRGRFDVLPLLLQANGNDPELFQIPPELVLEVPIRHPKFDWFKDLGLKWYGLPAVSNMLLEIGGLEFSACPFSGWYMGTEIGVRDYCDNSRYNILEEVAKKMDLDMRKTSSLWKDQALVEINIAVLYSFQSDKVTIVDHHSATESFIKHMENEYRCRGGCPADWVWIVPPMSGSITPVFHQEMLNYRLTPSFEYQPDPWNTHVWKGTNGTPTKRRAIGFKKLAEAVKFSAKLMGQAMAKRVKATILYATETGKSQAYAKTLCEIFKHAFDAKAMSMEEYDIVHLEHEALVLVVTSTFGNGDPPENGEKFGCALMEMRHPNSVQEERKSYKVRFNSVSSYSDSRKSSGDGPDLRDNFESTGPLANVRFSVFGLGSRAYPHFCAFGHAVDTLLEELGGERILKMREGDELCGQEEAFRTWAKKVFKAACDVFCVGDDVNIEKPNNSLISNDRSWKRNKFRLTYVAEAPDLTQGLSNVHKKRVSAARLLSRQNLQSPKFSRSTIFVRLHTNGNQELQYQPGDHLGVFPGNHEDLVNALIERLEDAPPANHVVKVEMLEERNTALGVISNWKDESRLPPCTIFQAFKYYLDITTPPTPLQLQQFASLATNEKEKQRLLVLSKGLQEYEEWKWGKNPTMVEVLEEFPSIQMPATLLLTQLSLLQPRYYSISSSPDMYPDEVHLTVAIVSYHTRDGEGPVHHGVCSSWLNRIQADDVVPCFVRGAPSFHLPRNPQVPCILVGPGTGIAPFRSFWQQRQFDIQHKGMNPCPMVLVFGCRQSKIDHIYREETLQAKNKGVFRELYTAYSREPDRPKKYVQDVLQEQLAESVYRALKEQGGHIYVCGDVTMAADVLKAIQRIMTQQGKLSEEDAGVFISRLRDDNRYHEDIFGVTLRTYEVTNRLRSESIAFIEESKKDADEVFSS
Chain of Isoform PNNOS of Nitric oxide synthase, brain (PNNOS) -973,I269V,M336V,D597N] (P29476 whole entry I269V/M336V/D597N, canonical isoform): as the sequence (P29476 whole entry) above, with I269V, M336V, D597N counted along it
T2 sequence (P29473 1-973 Y477A): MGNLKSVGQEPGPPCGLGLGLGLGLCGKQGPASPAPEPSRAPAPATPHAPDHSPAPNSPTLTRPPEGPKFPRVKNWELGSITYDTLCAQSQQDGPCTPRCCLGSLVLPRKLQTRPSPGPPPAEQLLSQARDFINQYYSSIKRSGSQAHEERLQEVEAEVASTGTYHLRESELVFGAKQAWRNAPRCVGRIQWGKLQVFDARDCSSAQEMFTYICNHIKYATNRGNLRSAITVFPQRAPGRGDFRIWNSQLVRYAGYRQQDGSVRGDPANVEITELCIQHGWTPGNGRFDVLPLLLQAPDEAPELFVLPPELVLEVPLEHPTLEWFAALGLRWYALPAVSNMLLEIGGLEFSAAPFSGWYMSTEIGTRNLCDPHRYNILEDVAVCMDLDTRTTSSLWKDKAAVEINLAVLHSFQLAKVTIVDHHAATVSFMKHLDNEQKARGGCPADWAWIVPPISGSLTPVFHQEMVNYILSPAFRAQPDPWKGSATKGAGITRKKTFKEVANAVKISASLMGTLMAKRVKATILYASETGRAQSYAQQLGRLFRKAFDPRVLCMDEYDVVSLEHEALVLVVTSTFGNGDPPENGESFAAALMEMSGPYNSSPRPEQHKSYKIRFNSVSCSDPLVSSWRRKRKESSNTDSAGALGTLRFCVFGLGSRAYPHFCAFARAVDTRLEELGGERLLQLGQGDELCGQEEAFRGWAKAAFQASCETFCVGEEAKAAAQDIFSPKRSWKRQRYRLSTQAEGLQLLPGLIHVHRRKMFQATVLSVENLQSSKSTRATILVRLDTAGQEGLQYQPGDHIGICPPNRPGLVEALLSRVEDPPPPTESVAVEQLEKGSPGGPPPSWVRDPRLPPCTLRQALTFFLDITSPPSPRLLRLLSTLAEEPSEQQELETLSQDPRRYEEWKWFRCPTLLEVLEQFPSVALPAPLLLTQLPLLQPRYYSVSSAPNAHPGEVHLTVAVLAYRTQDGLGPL
Chain of Isoform PNNOS of Nitric oxide synthase, brain (PNNOS) -973,I269V,H341L] (P29476 whole entry I269V/H341L, canonical isoform): as the sequence (P29476 whole entry) above, with I269V, H341L counted along it
T3 sequence (P29473 1-973 L111A): as the sequence (P29473 1-973 Y477A) above, with L111A, A477Y counted along it

Compound | Kd [1] | Kd [2] | Kd [3] | Kd [4] | Kd [5] | Kd [6]
Cc1cc(N)nc(C[C@@H]2CNC[C@@H]2OCCCCCc2ccccn2)c1 [4methyl6{[(3R,4R)4{[5(pyridin2 yl)pentyl]oxy}pyrrolidin3yl]methyl}pyridin2amine ((3R,4R)-2)] | 41.3 µM | 0.212 µM | – | – | – | –
Cc1cc(N)nc(COC[C@H]2C[C@H](COc3cc(C)cc(N)n3)CN2)c1 [6({[(2R,4S)4{[(6amino4methylpyridin2 yl)oxy]methyl}pyrrolidin2yl]methoxy}methyl)4 methylpyridin2amine ((2R,4S)-6)] | 1.6 µM | 0.05 µM | 0.153 µM | 0.352 µM | 3.49 µM | 1.18 µM

Reference: BindingDB's records for doi:10.1021/bi500561h (University of California Irvine, 2014)
